For the assay, the system named is BDF1 mice, P388 leukemia ip, median survival T/C. The experiment in a line: NCI In Vivo Anticancer Drug Screen. Data for tumor model P388 Leukemia (intraperitoneal) in B6D2F1 (BDF1) mice. As to conditions: endpoint: median survival time, higher = longer survival. The method in brief:
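T/C = treated-group survival ÷ vehicle-control survival; tumour transplanted into mice before dosing.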

Where “and” joins values, the source holds several entries; their conditions need not be identical. Identical values can stand only once. Toxic doses and inconclusive results are not listed.

Regarding `CC(CN1CC(=O)NC(=O)C1)N1CC(=O)NC(=O)C1` (stereo not drawn), the T/C by setting is: (dose: 3.12 mg/kg/injection, schedule: Q03HX024 (ip), vehicle: steriod suspending solution) 200 % of control; (dose: 3.75 mg/kg/injection, schedule: Q01DX010 (oral), vehicle: saline with Tween-80) 109 % of control; (dose: 6.25 mg/kg/injection, schedule: Q03HX024 (ip), vehicle: steriod suspending solution) 205 % of control; (dose: 10.0 mg/kg/injection, schedule: Q04DX003 (ip), vehicle: Klucel (hydroxypropylcellulose) (HPC)) 117 % of control; (dose: 12.5 mg/kg/injection, schedule: Q01DX009 (ip), vehicle: steriod suspending solution) 100 % of control; (dose: 12.5 mg/kg/injection, schedule: Q03HX024 (ip), vehicle: steriod suspending solution) 258 % of control. The T/C reads like this: (dose: 15.0 mg/kg/injection, schedule: Q01DX010 (oral), vehicle: saline with Tween-80) 154 % of control; (dose: 25.0 mg/kg/injection, schedule: Q03HX024 (ip), vehicle: steriod suspending solution) 211 % of control; (dose: 30.0 mg/kg/injection, schedule: Q01DX010 (ip), vehicle: saline) 186 % of control; (dose: 50.0 mg/kg/injection, schedule: Q01DX009 (ip), vehicle: steriod suspending solution) 164 % of control; (dose: 50.0 mg/kg/injection, schedule: Q04DX002 (ip), vehicle: Klucel (hydroxypropylcellulose) (HPC)) 111 % of control; (dose: 60.0 mg/kg/injection, schedule: Q01DX010 (ip), vehicle: saline) 181 % of control. The T/C (dose: 100.0 mg/kg/injection, schedule: Q01DX001 (ip), vehicle: steriod suspending solution) was 111 % of control; the T/C (dose: 100.0 mg/kg/injection, schedule: Q01DX009 (ip), vehicle: steriod suspending solution) is 111 % of control; the T/C (dose: 100.0 mg/kg/injection, schedule: Q04DX002 (ip), vehicle: Klucel (hydroxypropylcellulose) (HPC)) is 108 % of control; the T/C (dose: 100.0 mg/kg/injection, schedule: Q04DX003 (ip), vehicle: steriod suspending solution) was 176 % of control; the T/C (dose: 108.0 mg/kg/injection, schedule: Q04DX003 (ip), vehicle: Klucel (hydroxypropylcellulose) (HPC)) is 231 % of control; the T/C (dose: 120.0 mg/kg/injection, schedule: Q01DX010 (ip), vehicle: saline) is 113 % of control. Also, the T/C was 203 % of control (dose: 144.0 mg/kg/injection, schedule: Q04DX003 (ip), vehicle: Klucel (hydroxypropylcellulose) (HPC)); 287 % of control (dose: 180.0 mg/kg/injection, schedule: Q04DX003 (ip), vehicle: Klucel (hydroxypropylcellulose) (HPC)); 196 % of control (dose: 180.0 mg/kg/injection, schedule: Q04DX003 (ip), vehicle: alkali diluted with saline); 161 % of control (dose: 200.0 mg/kg/injection, schedule: Q04DX002 (ip), vehicle: Klucel (hydroxypropylcellulose) (HPC)); 100 % of control and 153 % of control and 215 % of control (dose: 200.0 mg/kg/injection, schedule: Q04DX003 (ip), vehicle: Klucel (hydroxypropylcellulose) (HPC)); 194 % of control (dose: 200.0 mg/kg/injection, schedule: Q04DX003 (ip), vehicle: steriod suspending solution). In addition, the T/C is 212 % of control (dose: 216.0 mg/kg/injection, schedule: Q04DX003 (ip), vehicle: Klucel (hydroxypropylcellulose) (HPC)); 245 % of control (dose: 240.0 mg/kg/injection, schedule: Q04DX003 (ip), vehicle: Klucel (hydroxypropylcellulose) (HPC)); 252 % of control (dose: 300.0 mg/kg/injection, schedule: Q04DX003 (ip), vehicle: alkali diluted with saline); 152 % of control (dose: 400.0 mg/kg/injection, schedule: Q01DX001 (ip), vehicle: steriod suspending solution); 193 % of control and 199 % of control (dose: 400.0 mg/kg/injection, schedule: Q04DX002 (ip), vehicle: Klucel (hydroxypropylcellulose) (HPC)); 176 % of control (dose: 400.0 mg/kg/injection, schedule: Q04DX003 (ip), vehicle: steriod suspending solution). Further, the T/C reads like this: (dose: 500.0 mg/kg/injection, schedule: Q04DX003 (ip), vehicle: Klucel (hydroxypropylcellulose) (HPC)) 91 % of control and 96 % of control; (dose: 500.0 mg/kg/injection, schedule: Q04DX003 (ip), vehicle: alkali diluted with saline) 93 % of control; (dose: 800.0 mg/kg/injection, schedule: Q01DX001 (ip), vehicle: steriod suspending solution) 94 % of control; (dose: 800.0 mg/kg/injection, schedule: Q04DX003 (ip), vehicle: steriod suspending solution) 111 % of control.
Consider `NC(=S)c1nn(C2OC(CO)C(O)C2O)c2ncnc(N)c12` (stereo not drawn), for which the T/C reads like this: (dose: 0.37 mg/kg/injection, schedule: Q01DX009 (ip), vehicle: saline) 111 % of control; (dose: 0.75 mg/kg/injection, schedule: Q01DX009 (ip), vehicle: saline) 116 % of control.
On to `CSc1nc(SC)c2[nH]cnc2n1`, for which the T/C is 87 % of control (dose: 3.13 mg/kg/injection, schedule: Q01DX009 (ip), vehicle: saline with Tween-80); 99 % of control (dose: 6.25 mg/kg/injection, schedule: Q01DX009 (ip), vehicle: saline with Tween-80); 91 % of control (dose: 12.5 mg/kg/injection, schedule: Q01DX009 (ip), vehicle: saline with Tween-80); 94 % of control (dose: 25.0 mg/kg/injection, schedule: Q01DX009 (ip), vehicle: saline with Tween-80).
Regarding `[Cl][Hg][Cl].c1cnccn1`, the T/C (dose: 0.25 mg/kg/injection, schedule: Q01DX009 (ip), vehicle: saline with Tween-80) is 104 % of control; the T/C (dose: 0.5 mg/kg/injection, schedule: Q01DX009 (ip), vehicle: saline with Tween-80) is 96 % of control and 109 % of control; the T/C (dose: 2.0 mg/kg/injection, schedule: Q04DX003 (ip), vehicle: saline with Tween-80) is 95 % of control and 100 % of control; the T/C (dose: 4.0 mg/kg/injection, schedule: Q01DX009 (ip), vehicle: saline with Tween-80) was 96 % of control; the T/C (dose: 4.0 mg/kg/injection, schedule: Q04DX003 (ip), vehicle: saline with Tween-80) was 95 % of control and 96 % of control; the T/C (dose: 5.0 mg/kg/injection, schedule: Q04DX003 (ip), vehicle: saline with Tween-80) was 116 % of control. For the same compound, the T/C (dose: 8.0 mg/kg/injection, schedule: Q04DX003 (ip), vehicle: saline with Tween-80) is 111 % of control and 119 % of control.
Turning to `C=C(C)C12CC(C)C34OC5(CCCCCCCC(C)C6C(C)C(OC(=O)c7ccccc7)C(O)(C(O)C7(COC(=O)CCCCCCCCCCCCCCC)OC7C3C1O5)C64)O2` (stereo not drawn), the T/C by setting is: (dose: 0.6 micrograms/kg/injection, schedule: Q01DX009 (ip), vehicle: saline + alcohol) 104 % of control; (dose: 1.3 micrograms/kg/injection, schedule: Q01DX009 (ip), vehicle: saline + alcohol) 112 % of control; (dose: 1.5 micrograms/kg/injection, schedule: Q01DX009 (ip), vehicle: saline + alcohol) 103 % of control; (dose: 2.5 micrograms/kg/injection, schedule: Q01DX009 (ip), vehicle: saline + alcohol) 109 % of control; (dose: 3.1 micrograms/kg/injection, schedule: Q01DX009 (ip), vehicle: saline + alcohol) 106 % of control; (dose: 5.0 micrograms/kg/injection, schedule: Q01DX009 (ip), vehicle: saline + alcohol) 112 % of control. The T/C by setting is: (dose: 10.0 micrograms/kg/injection, schedule: Q01DX009 (ip), vehicle: saline + alcohol) 96 % of control; (dose: 12.5 micrograms/kg/injection, schedule: Q01DX009 (ip), vehicle: saline + alcohol) 154 % of control; (dose: 20.0 micrograms/kg/injection, schedule: Q01DX009 (ip), vehicle: saline + alcohol) 116 % of control; (dose: 25.0 micrograms/kg/injection, schedule: Q01DX009 (ip), vehicle: saline + alcohol) 168 % of control; (dose: 50.0 micrograms/kg/injection, schedule: Q01DX009 (ip), vehicle: saline + alcohol) 183 % of control; (dose: 80.0 micrograms/kg/injection, schedule: Q01DX009 (ip), vehicle: saline + alcohol) 116 % of control.
As to `COc1cccc(C=O)c1OC`, the T/C reads like this: (dose: 50.0 mg/kg/injection, schedule: Q04DX003 (ip), vehicle: saline with Tween-80) 112 % of control; (dose: 100.0 mg/kg/injection, schedule: Q04DX003 (ip), vehicle: saline with Tween-80) 107 % of control; (dose: 200.0 mg/kg/injection, schedule: Q04DX003 (ip), vehicle: saline with Tween-80) 112 % of control; (dose: 400.0 mg/kg/injection, schedule: Q04DX003 (ip), vehicle: saline with Tween-80) 107 % of control.

Values taken from PubChem BioAssay AID328 (DTP/NCI, 2004).
